Experimental data as given in ChEMBL document CHEMBL2396564, “Synthesis and biological evaluation of a targeted DNA-binding transcriptional activator with HDAC8 inhibitory activity” (Bioorg Med Chem, 2013).
pIC50: −log10 of the molar value. Calls of active or inactive are those of the source. The rule behind the calls is not given here.

Assays:
[1] = target: T1, Histone deacetylase 8 (Mus musculus) (UniProt Q8VH37); test: Inhibition of HDAC8 in C57BL/6 mouse embryonic fibroblasts assessed as upregulation of Nanog expression at 100 nM after 24 hrs by qPCR analysis relative to control
T1 sequence (whole entry): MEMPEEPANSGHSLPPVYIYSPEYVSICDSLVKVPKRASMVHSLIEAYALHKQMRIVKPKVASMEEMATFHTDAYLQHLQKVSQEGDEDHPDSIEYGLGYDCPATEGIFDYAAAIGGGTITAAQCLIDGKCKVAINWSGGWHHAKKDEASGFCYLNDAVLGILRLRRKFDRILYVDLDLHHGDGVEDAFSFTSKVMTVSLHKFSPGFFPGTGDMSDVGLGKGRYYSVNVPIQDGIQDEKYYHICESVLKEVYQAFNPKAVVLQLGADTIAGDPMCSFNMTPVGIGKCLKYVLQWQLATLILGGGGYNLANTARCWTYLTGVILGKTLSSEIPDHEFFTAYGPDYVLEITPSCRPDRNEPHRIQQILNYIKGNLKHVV

[2] = target: T1, Histone deacetylase 8 (Mus musculus); test: Inhibition of HDAC8 in C57BL/6 mouse embryonic fibroblasts assessed as induction of histone H3 hyperacetylation in promoter region of Lhx1 at 100 nM after 24 hrs by ChIP analysis
Histone deacetylase 2 = Histone deacetylase 2 (Homo sapiens, UniProt Q92769); test: Inhibition of HDAC2 (unknown origin) after 30 mins by fluorometric analysis
Sequence of Histone deacetylase 2 (Q92769 whole entry): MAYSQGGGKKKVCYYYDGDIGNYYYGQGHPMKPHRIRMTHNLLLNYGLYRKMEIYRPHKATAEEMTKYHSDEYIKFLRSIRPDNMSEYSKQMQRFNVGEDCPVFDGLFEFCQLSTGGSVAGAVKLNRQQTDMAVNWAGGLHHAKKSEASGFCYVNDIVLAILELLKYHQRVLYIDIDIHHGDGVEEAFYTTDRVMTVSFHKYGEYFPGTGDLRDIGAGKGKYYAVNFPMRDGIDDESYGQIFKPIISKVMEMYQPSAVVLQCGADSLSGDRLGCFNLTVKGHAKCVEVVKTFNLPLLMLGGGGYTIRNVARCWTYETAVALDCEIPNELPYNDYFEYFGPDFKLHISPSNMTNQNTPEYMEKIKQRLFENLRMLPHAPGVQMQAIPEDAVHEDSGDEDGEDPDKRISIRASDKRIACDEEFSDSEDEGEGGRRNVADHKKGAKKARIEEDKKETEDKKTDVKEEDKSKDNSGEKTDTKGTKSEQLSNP

Histone deacetylase 1 = Histone deacetylase 1 (Homo sapiens, UniProt Q13547); test: Inhibition of HDAC1 (unknown origin) after 30 mins by fluorometric analysis
Sequence of Histone deacetylase 1 (Q13547 whole entry): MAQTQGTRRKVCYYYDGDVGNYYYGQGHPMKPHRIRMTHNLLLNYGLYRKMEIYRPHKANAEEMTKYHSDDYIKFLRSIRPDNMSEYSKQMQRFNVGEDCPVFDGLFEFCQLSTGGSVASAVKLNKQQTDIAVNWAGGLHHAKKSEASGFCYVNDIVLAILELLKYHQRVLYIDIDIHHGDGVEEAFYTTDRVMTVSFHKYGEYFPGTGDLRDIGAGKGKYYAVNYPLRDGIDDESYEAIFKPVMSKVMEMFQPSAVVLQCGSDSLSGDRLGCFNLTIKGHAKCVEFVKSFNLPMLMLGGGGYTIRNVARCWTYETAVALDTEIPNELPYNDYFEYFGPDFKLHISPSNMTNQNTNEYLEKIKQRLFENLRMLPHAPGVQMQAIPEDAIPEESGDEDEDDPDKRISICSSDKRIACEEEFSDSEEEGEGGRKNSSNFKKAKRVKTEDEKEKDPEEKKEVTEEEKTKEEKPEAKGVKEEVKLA

MEF [3] = test: Upregulation of Klf4 expression in C57BL/6 mouse embryonic fibroblasts at 100 nM after 24 hrs by qPCR analysis; format: functional, cell-based
[4] = target: T1, Histone deacetylase 8 (Mus musculus); test: Inhibition of HDAC8 in C57BL/6 mouse embryonic fibroblasts assessed as upregulation of Cdh1 expression at 100 nM after 24 hrs by qPCR analysis relative to control
[5] = target: T1, Histone deacetylase 8 (Mus musculus); test: Inhibition of HDAC8 in C57BL/6 mouse embryonic fibroblasts assessed as upregulation of Sox2 expression at 100 nM after 24 hrs by qPCR analysis relative to control
[6] = target: T1, Histone deacetylase 8 (Mus musculus); test: Inhibition of HDAC8 in C57BL/6 mouse embryonic fibroblasts assessed as upregulation of Dppa4 expression at 100 nM after 24 hrs by qPCR analysis relative to control
MEF [7] = test: Upregulation of c-Myc expression in C57BL/6 mouse embryonic fibroblasts at 100 nM after 24 hrs by qPCR analysis; format: functional, cell-based
[8] = target: T1, Histone deacetylase 8 (Mus musculus); test: Inhibition of HDAC8 in C57BL/6 mouse embryonic fibroblasts assessed as upregulation of Oct3/4 expression at 100 nM after 24 hrs by qPCR analysis relative to control
[9] = target: T1, Histone deacetylase 8 (Mus musculus); test: Inhibition of HDAC8 in C57BL/6 mouse embryonic fibroblasts assessed as upregulation of Rex1 expression at 100 nM after 24 hrs by qPCR analysis relative to control
[10] = target: T1, Histone deacetylase 8 (Mus musculus); test: Inhibition of HDAC8 in C57BL/6 mouse embryonic fibroblasts assessed as induction of histone H3 hyperacetylation in promoter region of Oct3/4 at 100 nM after 24 hrs by ChIP analysis
[11] = target: T1, Histone deacetylase 8 (Mus musculus); test: Inhibition of HDAC8 in C57BL/6 mouse embryonic fibroblasts assessed as upregulation of Otx2 expression at 100 nM after 24 hrs by qPCR analysis relative to control
[12] = target: T1, Histone deacetylase 8 (Mus musculus); test: Inhibition of HDAC8 in C57BL/6 mouse embryonic fibroblasts assessed as induction of histone H3 hyperacetylation in promoter region of Rex1 at 100 nM after 24 hrs by ChIP analysis
[13] = target: T1, Histone deacetylase 8 (Mus musculus); test: Inhibition of HDAC8 in C57BL/6 mouse embryonic fibroblasts assessed as upregulation of Lhx1 expression at 100 nM after 24 hrs by qPCR analysis relative to control
[14] = target: T1, Histone deacetylase 8 (Mus musculus); test: Inhibition of HDAC8 in C57BL/6 mouse embryonic fibroblasts assessed as induction of histone H3 hyperacetylation in promoter region of Cdh1 at 100 nM after 24 hrs by ChIP analysis
Histone deacetylase 8 = target: T2, Histone deacetylase 8 (Homo sapiens, UniProt Q9BY41); test: Inhibition of HDAC8 (unknown origin) after 30 mins by fluorometric analysis
T2 sequence (Q9BY41 whole entry): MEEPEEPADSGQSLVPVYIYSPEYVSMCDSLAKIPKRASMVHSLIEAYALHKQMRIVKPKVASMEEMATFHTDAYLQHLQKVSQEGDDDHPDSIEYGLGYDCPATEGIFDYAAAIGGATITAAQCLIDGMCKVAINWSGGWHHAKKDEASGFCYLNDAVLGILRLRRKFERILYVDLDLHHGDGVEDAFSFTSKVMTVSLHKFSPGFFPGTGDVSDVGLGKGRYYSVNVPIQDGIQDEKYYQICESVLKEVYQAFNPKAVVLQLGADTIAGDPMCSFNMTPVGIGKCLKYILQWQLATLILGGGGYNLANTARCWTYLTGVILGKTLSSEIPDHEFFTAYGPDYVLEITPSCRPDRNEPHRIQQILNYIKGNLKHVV

[15] = target: T1, Histone deacetylase 8 (Mus musculus); test: Inhibition of HDAC8 in C57BL/6 mouse embryonic fibroblasts assessed as induction of histone H3 hyperacetylation in promoter region of Nanog at 100 nM after 24 hrs by ChIP analysis
[16] = target: T1, Histone deacetylase 8 (Mus musculus); test: Inhibition of HDAC8 in C57BL/6 mouse embryonic fibroblasts assessed as induction of histone H3 hyperacetylation in promoter region of Otx2 at 100 nM after 24 hrs by ChIP analysis
[17] = target: T3, Histone deacetylase 8 (Homo sapiens) (UniProt Q9BY41); test: Ratio of trichostatin A IC50 to compound IC50 for HDAC8 (unknown origin)
T3 sequence (whole entry): T2 sequence (Q9BY41 whole entry)

MEF [18] = test: Cytotoxicity against C57BL/6 mouse embryonic fibroblasts assessed as cell viability at 10 uM after 24 hrs by WST-8 assay; format: cell-based

Compound: CN(C)CCCNC(=O)c1cc(NC(=O)c2cc(NC(=O)c3cc(NC(=O)c4nc(NC(=O)CCCNC(=O)c5cc(NC(=O)c6cc(NC(=O)c7cc(NC(=O)c8nc(NC(=O)CCNC(=O)CCNC(=O)CCCCCCC(=O)NO)cn8C)cn7C)cn6C)cn5C)cn4C)cn3C)cn2C)cn1C
- fold change (FC) [1]: 16
- inhibition [2]: Active
- pIC50 (Histone deacetylase 2): 5.95
- pIC50 (Histone deacetylase 1): 6.31
- Activity (MEF [3]): inactive
- fold change (FC) [4]: 25
- fold change (FC) [5]: 6
- fold change (FC) [6]: 2
- Activity (MEF [7]): inactive
- fold change (FC) [8]: 20
- fold change (FC) [9]: 60
- inhibition [10]: Active
- fold change (FC) [11]: 74
- inhibition [12]: Active
- fold change (FC) [13]: 2.6
- inhibition [14]: Active
- pIC50 (Histone deacetylase 8): 6.89
- inhibition [15]: Active
- inhibition [16]: Active
- Ratio IC50 [17]: 10
- Activity (MEF [18]): Non-toxic

Compound: CN(C)CCCNC(=O)c1cc(NC(=O)c2cc(NC(=O)c3cc(NC(=O)c4nc(NC(=O)CCCNC(=O)c5cc(NC(=O)c6cc(NC(=O)c7cc(NC(=O)c8nc(NC(=O)CCNC(=O)CCNC(=O)c9ccc(NC(=O)CCCCCCC(=O)NO)cc9)cn8C)cn7C)cn6C)cn5C)cn4C)cn3C)cn2C)cn1C
- fold change (FC) [1]: 20
- inhibition [2]: inactive
- pIC50 (Histone deacetylase 2): 6.11
- pIC50 (Histone deacetylase 1): 6.43
- Activity (MEF [3]): inactive
- fold change (FC) [4]: 25
- fold change (FC) [5]: 6
- fold change (FC) [6]: 2
- Activity (MEF [7]): inactive
- fold change (FC) [8]: 20
- fold change (FC) [9]: 60
- inhibition [10]: Active
- fold change (FC) [11]: 40
- inhibition [12]: Active
- inhibition [13]: inactive
- inhibition [14]: Active
- pIC50 (Histone deacetylase 8): 6.09
- inhibition [15]: Active
- inhibition [16]: Active
- Activity (MEF [18]): Non-toxic
